In PubChem BioAssay (NCI) one finds TGI data, which are given here for 15 molecules.

Each structure is given as a SMILES string.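 Method: 48-hour compound exposure of cells in 96-well plates, five concentrations, linear interpolation of endpoints. TGI denotes the concentration required for complete inhibition of growth.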 Some results are limits rather than exact numbers.

Assay in all cases: inhibition of tumour cell growth, NCI panel, 48 h
The subject of experiment [1] is CAKI-1 renal.
The subject of experiment [2] is DLD-1 colon.
The test system of experiment [3] is DMS 114 small cell lung.
The test system of experiment [4] is KM20L2 colon.
Experiment [5] deals with M19-MEL melanoma.
The test system of experiment [6] is NCI-H23 lung.
In experiment [7] the test system is NCI-H522 lung.
Experiment [8] has as its system OVCAR-8 ovarian.
Experiment [9] has as its system OVCAR-4 ovarian.
The subject of experiment [10] is XF 498 CNS.
Experiment [11] deals with SNB-75 CNS.
In experiment [12] the test system is MDA-MB-231 breast.
Experiment [13] relates to MDA-N.

As to `COC(=O)C1=CCC2c3[nH]c4ccccc4c3CCN2C1` (stereo unspecified), the TGI in experiment [1], in experiment [2], in experiment [3], in experiment [4], in experiment [5] and in [6] was over 354 µM throughout. For the same molecule, the TGI in experiment [7] and in [8] was over 354 µM throughout.
Turning to `CC(C)C(CCOS(=O)(=O)O)CCC(C)[C@H]1[C@@H](O)C(O)C2[C@]3(O)C[C@@H](O)C4(O)C[C@@H](O)CC[C@]4(C)C3CC[C@@]21C` (stereo partly specified), the TGI in [1], in experiment [2], in [3], in experiment [4], in [5] and in [6] was over 100 µM each time. In addition, the TGI in [7], in [9], in experiment [8] and in experiment [10] was over 100 µM in each case.
Consider `CC#CC#C/C=C1\C=CC2(OC=CC2O)O1` (stereo unspecified), for which the TGI in [1] is over 23.3 µM; in experiment [2], over 23.3 µM; in experiment [3], over 22.5 µM; in experiment [4], 10.4 µM; in [5], over 23.3 µM; in [6] it was over 23.3 µM. Besides, the TGI in [7] is over 20.3 µM; in [9] it was over 23.3 µM; in experiment [8], over 23.3 µM; in experiment [11], over 23.3 µM; in [10], over 23.3 µM.
Consider `CSC1=Nc2ccccc2N=C(c2ccccc2)C1`, for which the TGI in experiment [1] is over 100 µM; in [2] it was over 100 µM; in experiment [3] it was 65.5 µM; in [4], over 100 µM; in [5], over 100 µM; in [6], over 100 µM. The TGI in experiment [7], in experiment [9], in [8], in experiment [11] and in [10] was over 100 µM in each case.
Consider `C/C(CCN(C)C)=N\OC(=O)c1ccccc1`, for which the TGI in experiment [1], in [2], in experiment [3], in [4], in experiment [5] and in [6] was over 100 µM throughout. The TGI in experiment [7], in [9], in [8] and in experiment [11] was over 100 µM each time.
Take `C=C1CN2CCc3c([nH]c4ccccc34)C2CC1CC(=O)N(C)C` (stereo unspecified): the TGI in experiment [1], in [2], in experiment [3], in experiment [4], in [5] and in [6] was over 309 µM in each case. Moreover, the TGI in [7], in experiment [8] and in experiment [10] was over 309 µM in each case.
For `CC1CCc2c(sc3ncnc(N/N=C/c4ccc(Cl)cc4)c23)C1` (stereo unspecified), the TGI was 89.5 µM in experiment [1]; over 100 µM in experiment [2]; 62.7 µM in experiment [4]; over 100 µM in experiment [6]; 65.1 µM in experiment [7]; over 100 µM in experiment [8]. In addition, the TGI in experiment [11] was over 100 µM.
In the case of `Cn1c(=O)n(C2(C)CSC2)c2ccccc21`, the TGI in experiment [1], in [2], in experiment [3], in experiment [4], in experiment [5] and in experiment [6] was over 100 µM throughout. The TGI in experiment [7], in experiment [9], in experiment [8], in experiment [11] and in experiment [10] was over 100 µM throughout.
In the case of `N#C/C(=C\c1ccc[nH]1)C(=O)c1ccccc1`, the TGI in [1], in experiment [2], in experiment [3], in experiment [4], in experiment [5] and in experiment [6] was over 100 µM each time. Besides, the TGI in experiment [7], in experiment [9], in [8] and in [11] was over 100 µM each time.
Regarding `COc1ccc(-c2cc(=O)c3cc(O)ccc3o2)c(OC)c1OC`, the TGI was over 100 µM in experiment [1]; over 100 µM in experiment [2]; over 100 µM in experiment [3]; 58.1 µM in [4]; over 100 µM in experiment [5]; over 100 µM in experiment [6]. Besides, the TGI in experiment [7] was 64.6 µM; in [9], over 100 µM; in experiment [11], 76.5 µM; in experiment [10], over 100 µM.
Regarding `COc1cccc(/C=N/[N-]C(N)=O)c1[O-].[Co+2].[OH3+].c1ccncc1`, the TGI in experiment [1], in [4], in experiment [6], in experiment [7], in [9] and in experiment [8] was over 100 µM in each case. This molecule also displayed a TGI in experiment [11] of over 100 µM.
As to `C[C@@H]1CC[C@@]2(C)[C@H](C)/C(=C\COC(=O)/C=C/c3ccc(O)c(O)c3)CC[C@@]12C`, the TGI in [1] came to 15 µM; in experiment [12], 20.5 µM; in experiment [13], 14.3 µM; in experiment [6] it was 23.1 µM; in experiment [7] it was 3.12 µM; in [9] it was 19 µM. The TGI in [8] is 24.1 µM; in experiment [11], 28 µM.
With `O=C1N[C@H](C(=O)O)[C@@H](c2ccc(OCc3ccccc3)cc2)O1`, the TGI in experiment [1] was over 100 µM; in experiment [12], 51.4 µM; in experiment [13], over 100 µM; in experiment [6] it was over 100 µM; in experiment [7], over 100 µM; in [9], over 100 µM. The TGI was 45.8 µM in [8] and 28 µM in experiment [11].
With `NC1NCCC(=O)N1CCc1c[nH]c2ccccc12` (stereo unspecified), the TGI in experiment [1] is 94.4 µM; in [12], 34.4 µM; in [13], 34.3 µM; in experiment [6], 38.6 µM; in experiment [7], over 100 µM; in [9], 80.7 µM. Moreover, the TGI in experiment [8] turned out to be 89.1 µM; in experiment [11] it was 22.9 µM.
For the molecule `Cc1c(C#N)c2nc3ccccc3n2c(=O)/c1=C/Nc1ccc(Cl)cc1`, the TGI in [1] was over 100 µM; in experiment [12] it was 77.9 µM; in [13], over 100 µM; in experiment [6], 59.8 µM; in experiment [7], over 100 µM; in experiment [9] it was over 100 µM. Moreover, the TGI in experiment [8] was over 100 µM; in [11], 23.1 µM.
